Patent US10196609B2, “Composition for promoting cardiac differentiation of pluripotent stem cell comprising EGFR inhibitor” (Kyoto University, priority 2013, dated 2019)

How the values were obtained:
Monkey ES cells = experiment: Cardiac differentiation of monkey ES cells (α-MHC promoter-GFP) in adhesion culture, GFP fluorescence by HCS; assay type: cell-based; conditions: for effect of promoting cardiac differentiation (GFP fluorescence): added Days 4-8 together with KYO2111 (10 µM), AG1478 20 μM, read at Day 10, FIGS. 1-3
Experimental: At Day 10 of culture, compounds that enhanced GFP fluorescence were identified by measuring GFP fluorescence with HCS (high contents screening) system (Olympus IX81 inverted microscope and Molecular device/MetaMorph imaging system).
During Days 4-8 of culture KYO2111 (10 μM) and PP3 (3 μM, 10 μM, 30 μM, or 100 μM) were added.

human ES cells (KhES-3) = experiment: Cardiac differentiation of human ES cells in floating culture, percentage of cTnT-positive cardiomyocytes by flow cytometry; assay type: cell-based; conditions: for effect to promote cardiac differentiation in combination with XAV939 only: XAV+AG1478 or gefitinib; for effect to promote cardiac differentiation in combination with XAV939 only / effect to promote cardiac differentiation by itself: human ES or iPS cells, cell line not stated, FIG. 8; for effect to promote cardiac differentiation by itself: without addition of KYO2111 and XAV939
Experimental: (§1) Human ES cells or iPS cells subcultured with mouse feeder cells were collected. Colonies of the human ES cells or iPS cells (3-10×10^6 cells/well) were plated on 6-well plates of Ultra-low culture dish (CORNING 3261), and cultured in an IMDM-based medium having a defined composition (IMDM (Sigma) containing 1% MEM non-essential amino acid solution (Sigma), 1% penicillin-streptomycin (Gibco), 2 mM L-glutamine (Sigma), 0.5 mM L-carnitine (Sigma), 0.001% 2-mercaptoethanol (Gibco), and 0.4% human serum albumin (Sigma)) in floating culture for 30 days (FIG. 5). During Days 0-2 of culture (for 2 days), CHIR99021 (Axon) (4 μM) and BIO (Calbiochem) (1 μM) were added, and during Days 3-9 of culture (for 6 days) KYO2111 (10 μM) and XAV939 (1 μM) were added. […] The cardiac differentiation was evaluated by analyzing the percentage of cardiomyocytes with flow cytometry using an antibody against cardiac troponin T (cTnT), a specific marker of cardiac muscle at Day 30 of culture.

[1] = tested on: human iPS cells (IMR90-1); experiment: Cardiac differentiation of human iPS cells in floating culture, percentage of cTnT-positive cardiomyocytes by flow cytometry; assay type: cell-based; conditions: 5-20 μM added Days 2-9 of culture, FIG. 7
Experimental: as §1

Human iPS cells (253G1) = experiment: Cardiac differentiation of human iPS cells in feeder-free sphere culture, cTnT flow cytometry; assay type: cell-based; conditions: 10 μM Days 3-9 in addition to KYO2111 (10 μM) and XAV939 (1 μM); Day 30; increased from 34% without EGFR inhibitor; FIG. 9
Experimental: Human iPS cells (253G1) were cultured in sphere culture without feeder cells (feeder-free sphere culture). In detail, 253G1 cells subcultured with mouse feeder cells were collected, the cell cluster was passed through […] (CellTrics, PARTEC04004-2327) to give uniform cell clusters having the size of 80-120 μm, the cells were plated in 6-well plates of Ultra-low culture dish (CORNING 3261) and cultured in mTeSR1 medium (Stem Cell Technology 05850) containing 3% methylcellulose (R&D, HSC001) in floating culture until the size of the colonies of the iPS cells arrived at about 200-300 μm. The cells were subcultured more than 20 times by repeating the steps of this feeder-free sphere culture. The medium was replaced with an IMDM-based medium having a defined composition (IMDM (Sigma) containing 1% MEM non-essential amino acid solution (Sigma), 1% penicillin-streptomycin (Gibco), 2 mM L-glutamine (Sigma), 0.5 mM L-carnitine (Sigma), 0.001% 2-mercaptoethanol (Gibco), and 0.4% human serum albumin (Sigma)) and the cells were cultured in floating culture for 30 days (FIG. 5). […] The cardiac differentiation was evaluated by analyzing the percentage of cardiomyocytes with flow cytometry using an antibody against cardiac troponin T (cTnT), a specific marker of cardiac muscle at Day 30 of culture.

Src kinase = Src kinase (Homo sapiens, UniProt P12931); conditions: cited from earlier work
[2] = Effect to promote cardiac differentiation by the methods of WO2012/026491; assay type: cell-based; conditions: methods described in the Examples of WO2012/026491
Text: The effect of SO3031 (KY01-I), SO2031 (KY02-I), SO3042 (KY03-I), and SO2077 to promote cardiac differentiation was confirmed by the methods described in the Examples of WO2012/026491.

Sequence of Src kinase (P12931 whole entry): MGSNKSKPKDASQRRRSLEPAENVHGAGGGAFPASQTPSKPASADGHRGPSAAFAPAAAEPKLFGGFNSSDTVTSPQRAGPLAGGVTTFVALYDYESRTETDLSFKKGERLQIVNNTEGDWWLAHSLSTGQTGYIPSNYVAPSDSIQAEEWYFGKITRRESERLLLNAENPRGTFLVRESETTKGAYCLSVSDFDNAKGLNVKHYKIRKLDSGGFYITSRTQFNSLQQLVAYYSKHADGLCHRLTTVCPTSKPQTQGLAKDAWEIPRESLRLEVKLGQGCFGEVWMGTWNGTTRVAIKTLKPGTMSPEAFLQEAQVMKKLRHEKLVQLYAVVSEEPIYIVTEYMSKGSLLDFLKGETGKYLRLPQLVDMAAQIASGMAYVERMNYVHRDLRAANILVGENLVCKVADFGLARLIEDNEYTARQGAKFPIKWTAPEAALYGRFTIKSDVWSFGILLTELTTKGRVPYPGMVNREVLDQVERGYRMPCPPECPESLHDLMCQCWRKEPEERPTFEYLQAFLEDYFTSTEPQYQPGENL

COc1cc2ncnc(Nc3cccc(Cl)c3)c2cc1OC [AG1478]
synergistic promotion of cardiac differentiation with KYO2111 (Monkey ES cells; Wnt signaling inhibitor KYO2111 added together, FIG. 4): synergistically promoted cardiac differentiation | synergistic promotion of cardiac differentiation with XAV939 (Monkey ES cells; Wnt signaling inhibitor XAV939 added together, FIG. 4): synergistically promoted cardiac differentiation | effect of promoting cardiac differentiation (GFP fluorescence) (Monkey ES cells): had the effect of promoting cardiac differentiation | percentage of cardiomyocytes (human ES cells (KhES-3); 20 μM, Days 2-9, stated for human ES (KhES-3) and iPS (IMR90-1) cells together, Day 30, FIG. 7): 92-95% | cardiac differentiation efficiency (human ES cells (KhES-3); 5-20 μM added Days 2-9 of culture, KhES-3, FIG. 7): the cardiac differentiation efficiency was increased | effect to promote cardiac differentiation in combination with XAV939 only (human ES cells (KhES-3)): produced an effect to promote cardiac differentiation | effect to promote cardiac differentiation by itself (human ES cells (KhES-3)): produced an effect to promote cardiac differentiation | cardiac differentiation efficiency [1]: the cardiac differentiation efficiency was increased | percentage of cardiomyocytes (Human iPS cells (253G1)): about 50%

Nc1ncnc2c1cnn2-c1ccccc1 [PP3]
enhancement of the effect of KYO2111 to promote cardiac differentiation (Monkey ES cells; PP3 3, 10, 30 or 100 μM with KYO2111 (10 μM), Days 4-8, FIG. 10): enhance the effect of KYO2111 to promote cardiac differentiation | inhibitory effect on Src kinase (Src kinase): no inhibitory effect

COc1ccc(CCC(=O)Nc2nc3ccc(I)cc3s2)cc1OC [SO2031, 2-(3-(3,4-dimethoxyphenyl)propanamide)-6-iodobenzothiazole]
effect to promote cardiac differentiation [2]: confirmed

CCCOc1ccc(CCC(=O)Nc2nc3ccc(I)cc3s2)cc1OC [SO2077, 2-(3-(3-methoxy-4-propoxyphenyl)propanamide)-6-iodobenzothiazole]
effect to promote cardiac differentiation [2]: confirmed

COc1ccc(CC(=O)Nc2nc3ccc(I)cc3s2)cc1OC [SO3031, 2-(2-(3,4-dimethoxyphenyl)acetamide)-6-iodobenzothiazole]
effect to promote cardiac differentiation [2]: confirmed

COc1ccc(CCCC(=O)Nc2nc3ccc(I)cc3s2)cc1OC [SO3042, 2-(4-(3,4-dimethoxyphenyl)butanamide)-6-iodobenzothiazole]
effect to promote cardiac differentiation [2]: confirmed

COc1cc2ncnc(Nc3ccc(F)c(Cl)c3)c2cc1OCCCN1CCOCC1 [gefitinib]
effect of promoting cardiac differentiation (GFP fluorescence) (Monkey ES cells): have the effect of promoting cardiac differentiation | promotion of cardiac differentiation (human ES cells (KhES-3); 10 μM added Days 0-2 of culture, with CHIR99021+BIO Days 0-2, KYO2111+XAV939 Days 3-9, Day 30, FIG. 6): did not promote cardiac differentiation | effect to promote cardiac differentiation in combination with XAV939 only (human ES cells (KhES-3)): produced an effect to promote cardiac differentiation | effect to promote cardiac differentiation by itself (human ES cells (KhES-3)): produced an effect to promote cardiac differentiation | percentage of cardiomyocytes (Human iPS cells (253G1)): about 50%
